From PubChem BioAssay (NCI)
Values joined by “and” are separate entries in the source; they are usually repeats but may differ in a detail not shown here. Identical values can stand only once.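 In this assay, cells in 96-well plates receive the compound at five concentrations for 48 hours. Endpoints are linearly interpolated between the surrounding concentrations. GI50 = concentration required for 50% inhibition of growth. TGI is the concentration that stops growth completely.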

Columns and labels:
Assay in all cases: NCI-60 cell line screen, 48 h
HS 578T breast = tested on: HS 578T breast
CCRF-CEM leukemia = tested on: CCRF-CEM leukemia
KM12 colon = tested on: KM12 colon
SK-MEL-5 melanoma = tested on: SK-MEL-5 melanoma
HOP-92 NSCLC = tested on: HOP-92 NSCLC
LOX IMVI melanoma = tested on: LOX IMVI melanoma
HCC-2998 colon = tested on: HCC-2998 colon
SF-268 CNS = tested on: SF-268 CNS
IGROV1 ovarian = tested on: IGROV1 ovarian
RXF 393 renal = tested on: RXF 393 renal
A549 NSCLC = tested on: A549 NSCLC
CAKI-1 renal = tested on: CAKI-1 renal
SR leukemia = tested on: SR leukemia
SK-MEL-2 melanoma = tested on: SK-MEL-2 melanoma
UO-31 renal = tested on: UO-31 renal
OVCAR-3 ovarian = tested on: OVCAR-3 ovarian
UACC-257 melanoma = tested on: UACC-257 melanoma
U251 CNS = tested on: U251 CNS
NCI-H226 lung = tested on: NCI-H226 lung
K-562 leukemia = tested on: K-562 leukemia
MALME-3M melanoma = tested on: MALME-3M melanoma
M14 melanoma = tested on: M14 melanoma
RPMI-8226 leukemia = tested on: RPMI-8226 leukemia
TK-10 renal = tested on: TK-10 renal
SK-OV-3 ovarian = tested on: SK-OV-3 ovarian
HOP-62 NSCLC = tested on: HOP-62 NSCLC
SF-295 CNS = tested on: SF-295 CNS
DU-145 prostate = tested on: DU-145 prostate
UACC-62 melanoma = tested on: UACC-62 melanoma
MCF7 breast = tested on: MCF7 breast
COLO 205 colon = tested on: COLO 205 colon
ACHN renal = tested on: ACHN renal
SK-MEL-28 melanoma = tested on: SK-MEL-28 melanoma
MDA-MB-435 = tested on: MDA-MB-435
T-47D breast = tested on: T-47D breast
MOLT-4 leukemia = tested on: MOLT-4 leukemia
HT29 colon = tested on: HT29 colon
SNB-75 CNS = tested on: SNB-75 CNS
HCT-15 colon = tested on: HCT-15 colon
SN12C renal = tested on: SN12C renal
EKVX NSCLC = tested on: EKVX NSCLC
SF-539 CNS = tested on: SF-539 CNS
BT-549 breast = tested on: BT-549 breast
SNB-19 CNS = tested on: SNB-19 CNS
OVCAR-5 ovarian = tested on: OVCAR-5 ovarian
MDA-MB-231 breast = tested on: MDA-MB-231 breast
OVCAR-4 ovarian = tested on: OVCAR-4 ovarian
HL-60(TB) leukemia = tested on: HL-60(TB) leukemia
786-0 renal = tested on: 786-0 renal
HCT-116 colon = tested on: HCT-116 colon
NCI/ADR-RES ovarian = tested on: NCI/ADR-RES ovarian
NCI-H522 lung = tested on: NCI-H522 lung
A498 renal = tested on: A498 renal
SW-620 colon = tested on: SW-620 colon
PC-3 prostate = tested on: PC-3 prostate
OVCAR-8 ovarian = tested on: OVCAR-8 ovarian
NCI-H460 lung = tested on: NCI-H460 lung
NCI-H23 lung = tested on: NCI-H23 lung

FC(F)(F)c1ccc(CNc2ccc(Cc3c[nH]c4ncc(Cl)cc34)cn2)cn1
GI50 (HS 578T breast): 3.33 µM and 2.55 µM
TGI (HS 578T breast): 32.2 µM and > 10 µM
GI50 (CCRF-CEM leukemia): 13.9 µM and 6.85 µM
TGI (CCRF-CEM leukemia): 70.6 µM and > 10 µM
GI50 (KM12 colon): 3.53 µM and 3.56 µM
TGI (KM12 colon): 15.3 µM and > 10 µM
GI50 (SK-MEL-5 melanoma): 5.49 µM and 4.3 µM
TGI (SK-MEL-5 melanoma): 19.2 µM and > 10 µM
GI50 (HOP-92 NSCLC): 9.46 µM and 3.77 µM
TGI (HOP-92 NSCLC): 28.6 µM and > 10 µM
GI50 (LOX IMVI melanoma): 11.5 µM and > 10 µM
TGI (LOX IMVI melanoma): 26.3 µM and > 10 µM
GI50 (HCC-2998 colon): 12.5 µM and > 10 µM
TGI (HCC-2998 colon): 30.3 µM and > 10 µM
GI50 (SF-268 CNS): 6.25 µM and > 10 µM
TGI (SF-268 CNS): 29.3 µM and > 10 µM
GI50 (IGROV1 ovarian): 12.2 µM and > 10 µM
TGI (IGROV1 ovarian): 40.7 µM and > 10 µM
GI50 (RXF 393 renal): 9.75 µM and > 10 µM
TGI (RXF 393 renal): 25.8 µM and > 10 µM
GI50 (A549 NSCLC): 10.5 µM and > 10 µM
TGI (A549 NSCLC): 32.2 µM and > 10 µM
GI50 (CAKI-1 renal): 10.3 µM and > 10 µM
TGI (CAKI-1 renal): 30.8 µM and > 10 µM
GI50 (SR leukemia): 6.13 µM and 6.63 µM
TGI (SR leukemia): 42.2 µM and > 10 µM
GI50 (SK-MEL-2 melanoma): 17.6 µM and > 10 µM
TGI (SK-MEL-2 melanoma): 37.2 µM and > 10 µM
GI50 (UO-31 renal): 3.78 µM and 6.32 µM
TGI (UO-31 renal): 17.7 µM and > 10 µM
GI50 (OVCAR-3 ovarian): 14.4 µM and > 10 µM
TGI (OVCAR-3 ovarian): 33.7 µM and > 10 µM
GI50 (UACC-257 melanoma): 11.5 µM and > 10 µM
TGI (UACC-257 melanoma): 25.8 µM and > 10 µM
GI50 (U251 CNS): 10.1 µM and > 10 µM
TGI (U251 CNS): 24.8 µM and > 10 µM
GI50 (NCI-H226 lung): 4.91 µM and 3.94 µM
TGI (NCI-H226 lung): 27.2 µM and > 10 µM
GI50 (K-562 leukemia): 7.27 µM and 8.71 µM
TGI (K-562 leukemia): 44.8 µM and > 10 µM
GI50 (MALME-3M melanoma): 12.3 µM and > 10 µM
TGI (MALME-3M melanoma): 30.7 µM and > 10 µM
GI50 (M14 melanoma): 4.62 µM and > 10 µM
TGI (M14 melanoma): 19.2 µM and > 10 µM
GI50 (RPMI-8226 leukemia): 5.76 µM and 5.99 µM
TGI (RPMI-8226 leukemia): 44.2 µM and > 10 µM
GI50 (TK-10 renal): 13.5 µM and > 10 µM
TGI (TK-10 renal): 36.4 µM and > 10 µM
GI50 (SK-OV-3 ovarian): 8.8 µM and > 10 µM
TGI (SK-OV-3 ovarian): 32.5 µM and > 10 µM
GI50 (HOP-62 NSCLC): 11.4 µM and > 10 µM
TGI (HOP-62 NSCLC): 29.4 µM and > 10 µM
GI50 (SF-295 CNS): 4.83 µM and 5.24 µM
TGI (SF-295 CNS): 24.4 µM and > 10 µM
GI50 (DU-145 prostate): 12.4 µM and > 10 µM
TGI (DU-145 prostate): 33.6 µM and > 10 µM
GI50 (UACC-62 melanoma): 8.56 µM
TGI (UACC-62 melanoma): 25 µM
GI50 (MCF7 breast): 6.34 µM and > 10 µM
TGI (MCF7 breast): 33.6 µM and > 10 µM
GI50 (COLO 205 colon): 5.58 µM and > 10 µM
TGI (COLO 205 colon): 20.6 µM and > 10 µM
GI50 (ACHN renal): 13.2 µM and > 10 µM
TGI (ACHN renal): 36 µM and > 10 µM
GI50 (SK-MEL-28 melanoma): 13.2 µM and > 10 µM
TGI (SK-MEL-28 melanoma): 30.2 µM and > 10 µM
GI50 (MDA-MB-435): 5.92 µM and > 10 µM
TGI (MDA-MB-435): 22.7 µM and > 10 µM
GI50 (T-47D breast): 4.36 µM and 4.5 µM
TGI (T-47D breast): 28.3 µM and > 10 µM
GI50 (MOLT-4 leukemia): 4.02 µM and 3.28 µM
TGI (MOLT-4 leukemia): 21.9 µM and > 10 µM
GI50 (HT29 colon): 4.89 µM and > 10 µM
TGI (HT29 colon): 17.3 µM and > 10 µM
GI50 (SNB-75 CNS): 2.2 µM and 2.48 µM
TGI (SNB-75 CNS): 13.6 µM and > 10 µM
GI50 (HCT-15 colon): 10.1 µM and > 10 µM
TGI (HCT-15 colon): 27.1 µM and > 10 µM
GI50 (SN12C renal): 13.9 µM and > 10 µM
TGI (SN12C renal): 30.6 µM and > 10 µM
GI50 (EKVX NSCLC): 7.89 µM and > 10 µM
TGI (EKVX NSCLC): 43.5 µM and > 10 µM
GI50 (SF-539 CNS): 10.6 µM and 8.14 µM
TGI (SF-539 CNS): 24.4 µM and > 10 µM
GI50 (BT-549 breast): 14.5 µM and > 10 µM
TGI (BT-549 breast): 34.4 µM and > 10 µM
GI50 (SNB-19 CNS): 10.8 µM and > 10 µM
TGI (SNB-19 CNS): 37.2 µM and > 10 µM
GI50 (OVCAR-5 ovarian): 23 µM and > 10 µM
TGI (OVCAR-5 ovarian): 50.8 µM and > 10 µM
GI50 (MDA-MB-231 breast): 8.7 µM and > 10 µM
TGI (MDA-MB-231 breast): 26.1 µM and > 10 µM
GI50 (OVCAR-4 ovarian): 3.6 µM and 6.33 µM
TGI (OVCAR-4 ovarian): 19.2 µM and > 10 µM
GI50 (HL-60(TB) leukemia): 16.5 µM and > 10 µM
TGI (HL-60(TB) leukemia): 49.4 µM and > 10 µM
GI50 (786-0 renal): 5.33 µM and 4.19 µM
TGI (786-0 renal): 19.5 µM and > 10 µM
GI50 (HCT-116 colon): 12.3 µM and > 10 µM
TGI (HCT-116 colon): 27.4 µM and > 10 µM
GI50 (NCI/ADR-RES ovarian): 7.68 µM and > 10 µM
TGI (NCI/ADR-RES ovarian): 38.7 µM and > 10 µM
GI50 (NCI-H522 lung): 10.5 µM and > 10 µM
TGI (NCI-H522 lung): 29.3 µM and > 10 µM
GI50 (A498 renal): 2.08 µM and 4.41 µM
TGI (A498 renal): 14 µM and > 10 µM
GI50 (SW-620 colon): 10.6 µM and > 10 µM
TGI (SW-620 colon): 26.8 µM and > 10 µM
GI50 (PC-3 prostate): 9.65 µM and > 10 µM
TGI (PC-3 prostate): 34 µM and > 10 µM
GI50 (OVCAR-8 ovarian): 5.34 µM and > 10 µM
TGI (OVCAR-8 ovarian): 28.6 µM and > 10 µM
GI50 (NCI-H460 lung): 12.9 µM and > 10 µM
TGI (NCI-H460 lung): 30 µM and > 10 µM
GI50 (NCI-H23 lung): 10.3 µM and > 10 µM
TGI (NCI-H23 lung): 32 µM and > 10 µM
